# Source: paper PMC5218480 (PLoS ONE, 2017)
# System: MV-4-11 cells
# Assay: Gene expression microarray analysis (Affymetrix PrimeView) and GSEA
# Format: cell-based, human
# Set-up: RFU PODN (11730768_x_at) / Fold change /veh PODN (11730768_x_at) / RFU LINC00158 (11744669_a_at) / Fold change /veh LINC00158 (11744669_a_at) / RFU DUSP10 (11751237_a_at) / Fold change /veh DUSP10 (11751237_a_at) / RFU ID3 (11757404_x_at) / Fold change /veh ID3 (11757404_x_at) / RFU PLEKHG5 (11737974_s_at) / Fold change /veh PLEKHG5 (11737974_s_at) / RFU LRRC4B (11730491_at) / Fold change /veh LRRC4B (11730491_at) / RFU GIMAP4 (11747438_a_at) / Fold change /veh GIMAP4 (11747438_a_at) / RFU KRT8 (11758183_x_at) / Fold change /veh KRT8 (11758183_x_at) / RFU CNN1 (11734310_a_at) / Fold change /veh CNN1 (11734310_a_at) / RFU VPS37D (11726825_at) / Fold change /veh VPS37D (11726825_at) / RFU C10orf10 (11716522_x_at) / Fold change /veh C10orf10 (11716522_x_at) / RFU KIR2DL2 /// KIR2DL4 /// KIR2DL5A /// KIR2DL5B /// KIR2DS1 /// KIR2DS2 /// KIR2DS3 /// KIR2DS4 /// KIR3DL3 /// KIR3DL3 /// KIR3DS1 (11738374_at) / Fold change /veh KIR2DL2 /// KIR2DL4 /// KIR2DL5A /// KIR2DL5B /// KIR2DS1 /// KIR2DS2 /// KIR2DS3 /// KIR2DS4 /// KIR3DL3 /// KIR3DL3 /// KIR3DS1 (11738374_at) / RFU C1QL1 (11718748_at) / Fold change /veh C1QL1 (11718748_at) / RFU TMPRSS4 (11747572_a_at) / Fold change /veh TMPRSS4 (11747572_a_at) / RFU HAMP (11756126_x_at) / Fold change /veh HAMP (11756126_x_at) / RFU RNFT2 (11725882_a_at) / Fold change /veh RNFT2 (11725882_a_at) / RFU NR4A2 (11747474_a_at) / Fold change /veh NR4A2 (11747474_a_at) / RFU ABCC12 (11746883_a_at) / Fold change /veh ABCC12 (11746883_a_at) / RFU TMEM136 (11760407_x_at) / Fold change /veh TMEM136 (11760407_x_at) / RFU CLDN22 /// WWC2 (11732394_at) / Fold change /veh CLDN22 /// WWC2 (11732394_at) / RFU HLA-DPB1 (11760878_x_at) / Fold change /veh HLA-DPB1 (11760878_x_at) / RFU SPINT1 (11716480_a_at) / Fold change /veh SPINT1 (11716480_a_at) / RFU GAP43 (11754022_s_at) / Fold change /veh GAP43 (11754022_s_at) / RFU A4GNT (11735810_at) / Fold change /veh A4GNT (11735810_at) / RFU PRB3 (11715151_x_at) / Fold change /veh PRB3 (11715151_x_at) / RFU TUBB4B (11761932_at) / Fold change /veh TUBB4B (11761932_at) / RFU CAPN14 (11732068_a_at) / Fold change /veh CAPN14 (11732068_a_at) / RFU TMCC2 (11721928_a_at) / Fold change /veh TMCC2 (11721928_a_at) / RFU IRGQ (11745062_a_at) / Fold change /veh IRGQ (11745062_a_at) / RFU FAM174B (11720279_a_at) / Fold change /veh FAM174B (11720279_a_at) / RFU TMPRSS4 (11748680_a_at) / Fold change /veh TMPRSS4 (11748680_a_at) / RFU FAM212B (11763350_a_at) / Fold change /veh FAM212B (11763350_a_at) / RFU PLEKHG5 (11743358_a_at) / Fold change /veh PLEKHG5 (11743358_a_at) / RFU ZSCAN30 (11745921_a_at) / Fold change /veh ZSCAN30 (11745921_a_at) / RFU CMKLR1 (11741424_a_at) / Fold change /veh CMKLR1 (11741424_a_at) / RFU LOC101060620 /// MAPK8IP1 (11723275_at) / Fold change /veh LOC101060620 /// MAPK8IP1 (11723275_at) / RFU SPTSSB (11747773_x_at) / Fold change /veh SPTSSB (11747773_x_at) / RFU PRSS12 (11739890_at) / Fold change /veh PRSS12 (11739890_at) / RFU BIN1 (11741810_x_at) / Fold change /veh BIN1 (11741810_x_at) / RFU WNT11 (11732464_a_at) / Fold change /veh WNT11 (11732464_a_at) / RFU C10orf10 (11716521_a_at) / Fold change /veh C10orf10 (11716521_a_at) / RFU C5orf56 (11738089_at) / Fold change /veh C5orf56 (11738089_at) / RFU CYB561 (11721691_x_at) / Fold change /veh CYB561 (11721691_x_at) / RFU ANKRD19P (11752326_a_at) / Fold change /veh ANKRD19P (11752326_a_at) / RFU OR2T12 /// OR2T33 /// OR2T8 (11738714_s_at) / Fold change /veh OR2T12 /// OR2T33 /// OR2T8 (11738714_s_at) / RFU VCAN (11748164_a_at) / Fold change /veh VCAN (11748164_a_at) / RFU JSRP1 (11732532_at) / Fold change /veh JSRP1 (11732532_at) / RFU KRTAP10-11 (11738290_x_at) / Fold change /veh KRTAP10-11 (11738290_x_at) / RFU MYO3A (11730013_a_at) / Fold change /veh MYO3A (11730013_a_at) / RFU EBF3 (11725865_a_at) / Fold change /veh EBF3 (11725865_a_at) / RFU CAMK2N1 (11719241_x_at) / Fold change /veh CAMK2N1 (11719241_x_at) / RFU C5orf56 (11738088_a_at) / Fold change /veh C5orf56 (11738088_a_at) / RFU OLFML3 (11715873_a_at) / Fold change /veh OLFML3 (11715873_a_at) / RFU LOC100653217 /// NTM (11731650_a_at) / Fold change /veh LOC100653217 /// NTM (11731650_a_at) / RFU MAPK11 (11762145_a_at) / Fold change /veh MAPK11 (11762145_a_at) / RFU FIZ1 (11724087_x_at) / Fold change /veh FIZ1 (11724087_x_at) / RFU OASL (11726364_x_at) / Fold change /veh OASL (11726364_x_at) / RFU SOX15 (11748057_x_at) / Fold change /veh SOX15 (11748057_x_at) / RFU CD79A (11719716_a_at) / Fold change /veh CD79A (11719716_a_at) / RFU HIST1H1D (11736915_at) / Fold change /veh HIST1H1D (11736915_at) / RFU CASKIN2 (11723855_a_at) / Fold change /veh CASKIN2 (11723855_a_at) / RFU LOC730098 (11760151_x_at) / Fold change /veh LOC730098 (11760151_x_at) / RFU OR4N2 (11742367_at) / Fold change /veh OR4N2 (11742367_at) / RFU PRRT2 (11749266_a_at) / Fold change /veh PRRT2 (11749266_a_at) / RFU SNX32 (11753110_a_at) / Fold change /veh SNX32 (11753110_a_at) / RFU CDHR5 (11726645_a_at) / Fold change /veh CDHR5 (11726645_a_at) / RFU RCAN1 (11760418_a_at) / Fold change /veh RCAN1 (11760418_a_at) / RFU FAM167A (11723789_a_at) / Fold change /veh FAM167A (11723789_a_at) / RFU FAM26E (11764081_at) / Fold change /veh FAM26E (11764081_at) / RFU ISYNA1 (11749810_s_at) / Fold change /veh ISYNA1 (11749810_s_at) / RFU ACY1 (11761880_at) / Fold change /veh ACY1 (11761880_at) / RFU 11764098_at / Fold change /veh 11764098_at / RFU SAMD14 (11745864_x_at) / Fold change /veh SAMD14 (11745864_x_at) / RFU NPB (11741838_a_at) / Fold change /veh NPB (11741838_a_at) / RFU TMPRSS6 (11731388_a_at) / Fold change /veh TMPRSS6 (11731388_a_at) / RFU KRTAP10-2 (11738614_at) / Fold change /veh KRTAP10-2 (11738614_at) / RFU ARHGAP8 /// PRR5-ARHGAP8 (11727945_x_at) / Fold change /veh ARHGAP8 /// PRR5-ARHGAP8 (11727945_x_at) / RFU KRTAP5-7 /// NADSYN1 (11734609_at) / Fold change /veh KRTAP5-7 /// NADSYN1 (11734609_at) / RFU RASL12 (11751679_a_at) / Fold change /veh RASL12 (11751679_a_at) / RFU CDKN2B (11736163_a_at) / Fold change /veh CDKN2B (11736163_a_at) / RFU PRF1 (11729649_at) / Fold change /veh PRF1 (11729649_at) / RFU, ZNF638 /// ZNF638-IT1 / Fold change vs veh, ZNF638 /// ZNF638-IT1 / RFU, PANK3 / Fold change vs veh, PANK3 / RFU, SH3YL1 / Fold change vs veh, SH3YL1 / RFU, ZEB2 / Fold change vs veh, ZEB2 / RFU, NRIP1 / Fold change vs veh, NRIP1 / RFU, PTTG1IP / Fold change vs veh, PTTG1IP / RFU, CAPN2 / Fold change vs veh, CAPN2 / RFU, MED14 / Fold change vs veh, MED14 / RFU, SNORA58 / Fold change vs veh, SNORA58 / RFU, C1orf63 / Fold change vs veh, C1orf63 / RFU, LRRFIP1 / Fold change vs veh, LRRFIP1 / RFU, NDUFAF7 / Fold change vs veh, NDUFAF7 / RFU, SLC12A2 / Fold change vs veh, SLC12A2 / RFU, IBTK / Fold change vs veh, IBTK / RFU, ESF1 / Fold change vs veh, ESF1 / Fold change vs veh, TMEM50B / RFU, TAOK1 / Fold change vs veh, TAOK1 / RFU, ACBD3 / Fold change vs veh, ACBD3 / RFU, TMA16 / Fold change vs veh, TMA16 / RFU, RWDD3 / Fold change vs veh, RWDD3 / RFU, BCAT1 / Fold change vs veh, BCAT1 / RFU, EDEM3 / Fold change vs veh, EDEM3 / RFU, TMEM33 / Fold change vs veh, TMEM33 / RFU, WDR75 / Fold change vs veh, WDR75 / RFU, AHCTF1 / Fold change vs veh, AHCTF1 / RFU, TFRC / Fold change vs veh, TFRC / RFU, ZDHHC17 / Fold change vs veh, ZDHHC17 / RFU, NOM1 / Fold change vs veh, NOM1 / RFU, ARL8B / Fold change vs veh, ARL8B / RFU, ZBTB11 / Fold change vs veh, ZBTB11 / RFU, TAMM41 / Fold change vs veh, TAMM41 / RFU, KIAA1704 /// LOC100996395 / Fold change vs veh, KIAA1704 /// LOC100996395 / RFU, ING1 / Fold change vs veh, ING1 / RFU, TRMT61B / Fold change vs veh, TRMT61B / RFU, FUBP3 / Fold change vs veh, FUBP3 / RFU, TP53 / Fold change vs veh, TP53 / RFU, TNKS2 / Fold change vs veh, TNKS2 / RFU, ZFP14 / Fold change vs veh, ZFP14 / RFU, ACTR2 / Fold change vs veh, ACTR2 / RFU, PPP3R1 / Fold change vs veh, PPP3R1 / RFU, PIK3R1 / Fold change vs veh, PIK3R1 / RFU, HNRNPA1 / Fold change vs veh, HNRNPA1 / RFU, RNF170 / Fold change vs veh, RNF170 / RFU, ZNF28 / Fold change vs veh, ZNF28 / RFU, RNGTT / Fold change vs veh, RNGTT / RFU, OGT / Fold change vs veh, OGT / RFU, BRD1 / Fold change vs veh, BRD1 / RFU, MARS / Fold change vs veh, MARS / RFU, ZNF655 / Fold change vs veh, ZNF655 / RFU, FAHD1 / Fold change vs veh, FAHD1 / RFU, BDP1 / Fold change vs veh, BDP1 / RFU, LRRCC1 / Fold change vs veh, LRRCC1 / RFU, ARID1A / Fold change vs veh, ARID1A / RFU, ZNF146 / Fold change vs veh, ZNF146 / RFU, ZNF330 / Fold change vs veh, ZNF330 / RFU, GPN3 / Fold change vs veh, GPN3 / RFU, C9orf123 / Fold change vs veh, C9orf123 / RFU, N4BP2L2 / Fold change vs veh, N4BP2L2 / RFU, ARFIP1 / Fold change vs veh, ARFIP1 / RFU, FAM179B / Fold change vs veh, FAM179B / RFU, BCL10 / Fold change vs veh, BCL10 / RFU, UHRF1BP1L / Fold change vs veh, UHRF1BP1L / RFU, BET1 / Fold change vs veh, BET1 / RFU, CNOT2 / Fold change vs veh, CNOT2 / RFU, ZNF268 / Fold change vs veh, ZNF268 / Fold change vs veh, ZNF507 / RFU, DGCR2 / Fold change vs veh, DGCR2 / RFU, WDSUB1 / Fold change vs veh, WDSUB1 / Fold change vs veh, HSP90B1 /// MIR3652 / RFU, ADSS / Fold change vs veh, ADSS / RFU, GK / Fold change vs veh, GK / RFU, ZNF148 / Fold change vs veh, ZNF148 / RFU, TAF9 / Fold change vs veh, TAF9 / RFU, SLC1A5 / Fold change vs veh, SLC1A5 / RFU, SLMO2 / Fold change vs veh, SLMO2 / RFU, ABCC4 / Fold change vs veh, ABCC4 / RFU, LOC101060439 /// RAP1B / Fold change vs veh, LOC101060439 /// RAP1B / RFU, RFX7 / Fold change vs veh, RFX7 / RFU, GTPBP10 / Fold change vs veh, GTPBP10 / RFU, CNEP1R1 / Fold change vs veh, CNEP1R1 / RFU, BIVM-ERCC5 /// ERCC5 / Fold change vs veh, BIVM-ERCC5 /// ERCC5 / RFU, ILF3 / Fold change vs veh, ILF3 / RFU 11762660_at / Fold change /veh 11762660_at / RFU VCAN (11757783_s_at) / Fold change /veh VCAN (11757783_s_at) / RFU DDX43 (11728927_at) / Fold change /veh DDX43 (11728927_at) / RFU KRT8 (11758188_x_at) / Fold change /veh KRT8 (11758188_x_at) / RFU NKD1 (11759106_at) / Fold change /veh NKD1 (11759106_at) / RFU SRD5A1 (11742802_a_at) / Fold change /veh SRD5A1 (11742802_a_at) / RFU TPSAB1 /// TPSB2 (11721975_s_at) / Fold change /veh TPSAB1 /// TPSB2 (11721975_s_at) / RFU GSTM3 (11746129_a_at) / Fold change /veh GSTM3 (11746129_a_at) / RFU IL23R (11737362_x_at) / Fold change /veh IL23R (11737362_x_at) / RFU TMEM51 (11727254_a_at) / Fold change /veh TMEM51 (11727254_a_at) / RFU PIWIL2 (11732686_x_at) / Fold change /veh PIWIL2 (11732686_x_at) / RFU ORM1 (11744905_x_at) / Fold change /veh ORM1 (11744905_x_at) / RFU CCDC152 (11743942_at) / Fold change /veh CCDC152 (11743942_at) / RFU ECM1 (11717891_a_at) / Fold change /veh ECM1 (11717891_a_at) / RFU IL23R (11748794_a_at) / Fold change /veh IL23R (11748794_a_at) / RFU TNFAIP8L3 (11732012_x_at) / Fold change /veh TNFAIP8L3 (11732012_x_at) / RFU MBOAT4 (11741988_at) / Fold change /veh MBOAT4 (11741988_at) / RFU 11764193_at / Fold change /veh 11764193_at / RFU TMEM53 (11763286_at) / Fold change /veh TMEM53 (11763286_at) / RFU MAGEB2 (11727129_at) / Fold change /veh MAGEB2 (11727129_at) / RFU TMEM200A (11744735_a_at) / Fold change /veh TMEM200A (11744735_a_at) / RFU CCDC152 (11751479_a_at) / Fold change /veh CCDC152 (11751479_a_at) / RFU FAM211A (11726209_a_at) / Fold change /veh FAM211A (11726209_a_at) / RFU RGS16 (11746705_a_at) / Fold change /veh RGS16 (11746705_a_at) / RFU VCAN (11755009_s_at) / Fold change /veh VCAN (11755009_s_at) / RFU RHOB (11743442_s_at) / Fold change /veh RHOB (11743442_s_at) / RFU RGS16 (11720943_a_at) / Fold change /veh RGS16 (11720943_a_at) / RFU RGS16 (11720944_at) / Fold change /veh RGS16 (11720944_at) / RFU, VPS4B / Fold change vs veh, VPS4B / RFU, CREB1 / Fold change vs veh, CREB1 / RFU, DNAJC13 / Fold change vs veh, DNAJC13 / RFU, GNAQ / Fold change vs veh, GNAQ / RFU, CDK5R1 / Fold change vs veh, CDK5R1 / RFU, ZRANB3 / Fold change vs veh, ZRANB3 / RFU, CUL4A / Fold change vs veh, CUL4A / RFU, CCNY / Fold change vs veh, CCNY / RFU, UFL1 / Fold change vs veh, UFL1 / RFU, COG3 / Fold change vs veh, COG3 / RFU, DIAPH2 / Fold change vs veh, DIAPH2 / RFU, SKA2 / Fold change vs veh, SKA2 / RFU, AFF3 / Fold change vs veh, AFF3 / RFU, LMF1 / Fold change vs veh, LMF1 / RFU, IPO11 / Fold change vs veh, IPO11 / RFU, DFFB / Fold change vs veh, DFFB / RFU, FOXP1 / Fold change vs veh, FOXP1 / RFU, CARD8 / Fold change vs veh, CARD8 / RFU, STRN3 / Fold change vs veh, STRN3 / RFU, ADK / Fold change vs veh, ADK / RFU, RASSF2 / Fold change vs veh, RASSF2 / RFU, WIPF1 / Fold change vs veh, WIPF1 / RFU, LARP1B / Fold change vs veh, LARP1B / RFU, RASA1 / Fold change vs veh, RASA1 / RFU, RB1 / Fold change vs veh, RB1 / RFU, PPFIA1 / Fold change vs veh, PPFIA1 / RFU, MAT2A / Fold change vs veh, MAT2A / RFU, CCT5 / Fold change vs veh, CCT5 / RFU, WDR92 / Fold change vs veh, WDR92 / RFU, CUX1 / Fold change vs veh, CUX1 / RFU, TTC7A / Fold change vs veh, TTC7A / RFU, TMEM135 / Fold change vs veh, TMEM135 / RFU, DEPTOR / Fold change vs veh, DEPTOR / RFU, CPM / Fold change vs veh, CPM / RFU, DNAJB6 / Fold change vs veh, DNAJB6 / RFU, CACNA2D3 / Fold change vs veh, CACNA2D3 / RFU, DTX4 / Fold change vs veh, DTX4 / RFU, TFCP2 / Fold change vs veh, TFCP2 / RFU, GMCL1 /// GMCL1P1 / Fold change vs veh, GMCL1 /// GMCL1P1 / RFU, AEBP2 / Fold change vs veh, AEBP2 / RFU, SNHG1 /// SNORD22 /// SNORD25 /// SNORD26 /// SNORD27 /// SNORD28 /// SNORD29 /// SNORD31 / Fold change vs veh, SNHG1 /// SNORD22 /// SNORD25 /// SNORD26 /// SNORD27 /// SNORD28 /// SNORD29 /// SNORD31 / Fold change (Aza/veh), C12orf56 (ProbeSet 11735607_a_at) / Fold change (ACY-1035/veh), C12orf56 (ProbeSet 11735607_a_at) / Fold change (Aza/veh), FGFR1OP (ProbeSet 11751329_s_at) / Fold change (ACY-1035/veh), FGFR1OP (ProbeSet 11751329_s_at) / Fold change (Aza/veh), VPS36 (ProbeSet 11739960_a_at) / Fold change (ACY-1035/veh), VPS36 (ProbeSet 11739960_a_at) / RFU SYPL1 (11715823_x_at) / Fold change /veh SYPL1 (11715823_x_at) / RFU IGFBP7 (11715501_s_at) / Fold change /veh IGFBP7 (11715501_s_at) / RFU REEP3 (11722064_at) / Fold change /veh REEP3 (11722064_at) / RFU IGLL1 (11728026_x_at) / Fold change /veh IGLL1 (11728026_x_at): dose or concentration left out as unconfirmed
# Conditions: ProbeSet 11727958_a_at; LIST B
compound,measurement,value
Nc1ccc(-c2cccs2)cc1NC(=O)c1ccc2c(c1)cc(C1CC1)n2CCN1CCOCC1 [ACY-1035],"RFU, ING1",74.08 RFU
